Measured values as given in patent publication US7399786B2, “Derivatives of amino acids for treatment of obesity and related disorders” (Bexel Pharmaceuticals, Inc., priority 2005, dated 2008).

Experiments:
IL-6 = IL-6 inhibition in hPBMC, LPS challenge, ELISA; type: cell-based, human; settings: 1 μM, LPS 100 ng/mL for 20 hours
Description: (§1) Cells (1×10^6/mL) were challenged with lipopolysaccharides (LPS) at a concentration of (100 ng/mL) for 20 hours. Cell supernatant was analyzed for the presence of IL-6 and IL-1β by antibody directed enzyme-linked immunoassay (R & D Systems, MN, USA).

[1] = High fat diet induced obesity (DIO) model; type: in vivo, C57BL/6J male mice; settings: DIO mice
Description: Six week old C57BL/6J male mice were fed with high fat (60%) diet for 14 days. From day 15 onwards animals were treated with compound 9 at a dose of 50 mg/kg body weight or sibutramine (5 mg/kg bw) for 60 days. All the animals were dosed once daily during morning hours up to day 15. From day 16 to end of the study animals were dosed during evening hours.

LPS induced NO = assay: Inhibition of LPS induced NO in mouse peritoneal macrophages; type: cell-based; settings: compound 1 hour then LPS 10 μg/mL for 48 hrs
Description: Mouse peritoneal macrophages were isolated by injecting warm PBS in the peritoneum and cells were tapped out with syringe and stored in a tube. After two washes with PBS, cells were plated in 96 well plates and incubated with compound 9 for 1 hour and then challenged with LPS (10 μg/mL) for 48 hrs. Supernatant was assayed for NO by ELISA kit (R&D Biosystems).

IL-1β = IL-1β inhibition in hPBMC, LPS challenge, ELISA; type: cell-based, human; settings: 1 μM, LPS 100 ng/mL for 20 hours
Description: as §1

[2] = Hypoglycemic effect in normal lean mice; type: in vivo, C57BL/6J lean male mice; settings: 50 mg/kg body weight for 60 days, measured every third day
Description: C57BL/6J lean male mice were fed, ad libitum, with laboratory rodent diet and purified water. Animals were treated with compound 9 at a dose of 50 mg/kg body weight for 60 days. Blood glucose was measured with an ACCUCHECK® glucose meter every third day during morning hours. No change in blood glucose levels was observed.

3T3-L1 cells = assay: PPARγ agonist induced adipocyte differentiation, Oil red O staining; type: cell-based, mouse; settings: 11 days
Description: Adipogenesis is defined as the production of fat laden adipocytes from fibroblast cells. All known PPARγ agonists induce adipogenesis after a long term of treatment. […] Cells were cultured for 11 days and every 48 h fresh drug was given while changing the media.

[3] = 50 mg/kg for 60 days, compared to control animals

CN(C)C(=O)[C@@H](N)Cc1ccc(Oc2ccc(CCC(=O)NO)cc2)cc1.Cl [compound 9, L-2-amino-3-{4-[4-(2-hydroxycarbamoylethyl)-phenoxy]-phenyl}-N,N-dimethylpropionamide hydrochloride]
inhibition of IL-6 (IL-6): inhibition
body weight ([1]; 50 mg/kg body weight once daily for 60 days): lowered body weight
oral glucose tolerance ([1]; 50 mg/kg for 60 days): improved
free fatty acid levels [1, 3]: significantly lowered
triglyceride levels [1, 3]: significantly lowered
NO production (LPS induced NO): doses dependently inhibited NO production
inhibition of IL-1β (IL-1β): inhibition
blood glucose levels [2]: No change
adipocyte differentiation (adipogenesis), compound alone (3T3-L1 cells; 10 μM alone, Oil red O): not adipogenic
adipogenesis induced by PPARγ agonist, combined treatment (3T3-L1 cells; compound 10 μM mixed with rosiglitazone 1 μM): blocks the adipogenesis process induced by PPARγ agonist

CC(C)CC(N(C)C)C1(c2ccc(Cl)cc2)CCC1 (centres unmarked) [Sibutramine, reference compound]
bodyweight gain ([1]; 5 mg/kg bw once daily for 60 days): Reduced Bodyweight Gain
